Results published in patent US10532068B2, “Dual molecular delivery of oligonucleotides and peptide containing conjugates” (Merck Sharp & Dohme Corp., priority 2013, dated 2020).
Where no end group is shown, it is not given here. [ ]: non-standard residue; d: D form. S‑S‑TGN = not defined here; TGN = not defined here

Key:
CTNNB1 = experiment: In vivo evaluation in mice: liver mRNA knockdown measurement (TaqMan qPCR); design: species or system CD-1 mice
Description: (§1) Female CD-1 mice (Charles River) were injected in accordance with either a sequential dosing paradigm or a co-dosing paradigm. In the sequential dosing paradigm, the targeted siRNA (SCE) is dosed at t=0 and the targeted peptide is separately dosed up to 2 hr before the SCE (−2 hr) or up to 24 hr after the SCE (+24 hr). In the co-dosing paradigm, the SCE and peptides are co-formulated and dosed together in the same formulation as a single injection at t=0. The mice were dosed either by intravenous (i.v.) or subcutaneous (s.c.) injection of SCE and peptide. For the i.v. doses, the compounds were injected into the tail vein of the mice. For the s.c. doses, the compounds were injected in the subcutaneous space on the back of the mouse between the shoulder blades. At the indicated harvest times (measured from t=0 when the siRNA was dosed, regardless of when the peptide was dosed), the animals were sacrificed and 3 mm liver punches were collected, preserved in RNAlater (Ambion), and stored at 4° C. Separate 5 mm liver punches were collected, placed in 96-well plates, frozen on dry ice, and stored at −80° C. until use.
The 3 mm liver punches were removed from RNAlater and homogenized in Trizol (Invitrogen) using a bead mill tissue lyser (Qiagen); disruption was performed for two 5-minute cycles at 30 Hz. RNA extraction was performed using 1-bromo-2-chloropropane (Acros Organics) and total RNA was isolated from the aqueous phase using the MagMax RNA isolation method (Ambion). […] TaqMan qPCR analysis was performed with an ABI 7900 Real-Time PCR System using TaqMan Fast Advanced Master Mix (Applied Biosystems). All TaqMan probes and primers for CTNNB1 and PPIB (housekeeping gene) were purchased from Applied Biosystems as pre-validated gene expression assays. Results are calculated by the comparative Ct method, where the difference between the CTNNB1 Ct value and the PPIB Ct value (ΔCt) is calculated and then further normalized relative to the PBS control by taking a second difference (ΔΔCt), as described previously (1).

[1] = Lethality observed in the in vivo evaluation in mice; design: species or system CD-1 mice; key to lethal at this dose (asterisk at targeted peptide dose): *: lethal at this dose
Description: as §1

[2] = Table 6, mice, sequential, peptide IV 15 min after siRNA IV, TGN-L-siRNA-III 0.5 mg/kg, peptide 2 mg/kg
[3] = Table 6, mice, sequential, peptide IV 15 min after siRNA IV, TGN-L-siRNA-III 0.5 mg/kg, peptide 10 mg/kg
[4] = Table 6, mice, sequential, peptide IV 15 min after siRNA IV, TGN-L-siRNA-III 0.25 mg/kg, peptide 2 mg/kg
[5] = Table 6, mice, sequential, peptide IV 15 min after siRNA IV, TGN-L-siRNA-III 0.25 mg/kg, peptide 10 mg/kg
[6] = Table 6, TGN-L-siRNA-III 0.25 mg/kg IV, peptide 10 mg/kg IV 15 min after siRNA
[7] = Table 6, mice, sequential, peptide IV 15 min after siRNA IV, TGN-L-siRNA-III 0.25 mg/kg, peptide 5 mg/kg
[8] = Table 6, mice, sequential, peptide IV 15 min after siRNA IV, TGN-L-siRNA-II 0.25 mg/kg, peptide 3 mg/kg

Substance: TGN-S-S-SEQ ID NO: 1419 (D) (C[dF][dL][dE][dE][dL][dW]G[dL][dL][dE][dH][dL][dL]; not fully specified (residue 1); listed as Homo sapiens)
- In vivo mRNA knockdown (%) (CTNNB1; [2]): 43%
- In vivo mRNA knockdown (%) (CTNNB1; [3]): 78%
- In vivo mRNA knockdown (%) (CTNNB1; Table 6, mice, sequential, peptide IV 15 min after siRNA IV, TGN-L-siRNA-III 0.5 mg/kg, peptide 25 mg/kg): 76%
- lethal at this dose (asterisk at targeted peptide dose) ([1]; Table 6, TGN-L-siRNA-III 0.5 mg/kg IV, peptide 25 mg/kg IV 15 min after siRNA): 25*

Substance: TGN-S-S-SEQ ID NO: 1654 (D) (CG[dL][dL][dE][dE][dI][dE][dE][dL][dL][dE][dE]G[dL][dE][dN][dL][dI][dD][dW]G[dN][dS]; not fully specified (residue 1); listed as Homo sapiens)
- In vivo mRNA knockdown (%) (CTNNB1; [4]): 51%
- In vivo mRNA knockdown (%) (CTNNB1; [5]): 72%
- In vivo mRNA knockdown (%) (CTNNB1; Table 6, mice, sequential, peptide IV 15 min after siRNA IV, TGN-L-siRNA-III 0.25 mg/kg, peptide 50 mg/kg): 65%
- lethal at this dose (asterisk at targeted peptide dose) ([1]; Table 6, TGN-L-siRNA-III 0.25 mg/kg IV, peptide 50 mg/kg IV 15 min after siRNA): 50*

Substance: TGN-S-S-SEQ ID NO: 1628 (D) ([dC]G[dL][dL][dA][dI]X[dE][dI][dE][dE][dL][dL][dE][dE]G[dL][dE][dN][dL][dI][dD][dW][dW][dN][dS]; not fully specified; also: TGN via disulfide; listed as Homo sapiens)
- Mortality (words printed in the knockdown column) [1, 6]: All mice died
- lethal at this dose (asterisk at targeted peptide dose) [1, 6]: 10*

Substance: TGN-S-S-SEQ ID NO: 1728(D) ([dC](TGN)G[dL][dF][dA][dV][dI][dE][dE][dV][dA][dS][dV][dI]GG[dL]; reading uncertain; also: Cys disulfide-linked to TGN peptide; listed as Homo sapiens)
- In vivo mRNA knockdown (%) (CTNNB1; [5]): 23%

Substance: TGN-S-S-SEQ ID NO: 1632 (D) ([dC](S‑S‑TGN)G[dL][dF]G[dE][dI][dH][dH][dL][dI][dH][dH]G[dL][dH][dN][dL][dI][dD][dW][dW][dN]G; reading uncertain; also: Cys disulfide-linked to TGN peptide; listed as Homo sapiens)
- In vivo mRNA knockdown (%) (CTNNB1; [5]): 36%

Substance: TGN-S-S-SEQ ID NO: 1734 (D): TGN-S-S-peptide, peptide AC-GLFEAIEGFIENGWEGLAELAEALEALAAGGSC
- In vivo mRNA knockdown (%) (CTNNB1; [7]): 61%

Substance: TGN-S-S-SEQ ID NO: 1643 (D) ([dC](TGN)G[dF][dF]G[dE][dI][dA][dE][dL][dI][dE][dE]G[dL][dK][dN][dL][dI][dD][dW]G[dN]G; reading uncertain; also: Cys disulfide-linked to TGN peptide; listed as Homo sapiens)
- In vivo mRNA knockdown (%) (CTNNB1; [5]): 41%

Substance: TGN-S-S-SEQ ID NO: 1651 (D) ([dC](TGN)G[dL][dF][dE][dE][dI][dA][dE][dL][dI][dE][dE]G[dL][dE][dN][dL][dI][dD][dW]G[dN]G; reading uncertain; also: Cys disulfide-linked to TGN peptide; listed as Homo sapiens)
- In vivo mRNA knockdown (%) (CTNNB1; [5]): 49%

Substance: TGN-S-S-SEQ ID NO: 1719 (L) (C(TGN)GLFAEIEELIWEGLENLIDWWNQ; reading uncertain; also: Cys disulfide-linked to TGN peptide; listed as Homo sapiens)
- In vivo mRNA knockdown (%) (CTNNB1; [7]): 25%

Substance: TGN-S-S-SEQ ID NO: 1713 (L): TGN-S-S-peptide, peptide CGL-R6H-GELEEL-S7H-EEGLENLIDWWNG (STAPLED)
- In vivo mRNA knockdown (%) (CTNNB1; [4]): 0%
- In vivo mRNA knockdown (%) (CTNNB1; [5]): 2%

Substance: TGN-S-S-SEQ ID NO: 1746 (D): TGN-S-S-peptide, peptide CEALFGKINAIFIGKL ([dC][dE][dA][dL][dF]G[dK][dI][dN][dA][dI][dF][dI]G[dK][dL]; also: disulfide to TGN peptide via N-terminal Cys; listed as Homo sapiens)
- In vivo mRNA knockdown (%) (CTNNB1; [2]): 31%
- In vivo mRNA knockdown (%) (CTNNB1; [3]): 25%

Substance: TGN-S-S-SEQ ID NO: 935 (L) (C(TGN)GFFGEIAELIWEGLKNLIDWWNG; reading uncertain; also: TGN attached via disulfide (S-S); listed as Homo sapiens)
- In vivo mRNA knockdown (%) (CTNNB1; [4]): 17%
- In vivo mRNA knockdown (%) (CTNNB1; [5]): 23%

Substance: TGN-S-S-SEQ ID NO: 1633 (D) ([dC](TGN)G[dL][dF]G[dE][dI][dH][dH][dL][dI][dH][dH]G[dL][dE][dN][dL][dI][dD][dW][dW][dN]G; reading uncertain; also: Cys disulfide-linked to TGN peptide; listed as Homo sapiens)
- In vivo mRNA knockdown (%) (CTNNB1; [5]): 55%

Substance: TGN-S-S-SEQ ID NO: 1726(D) ([dC](TGN)G[dL][dF][dA][dV][dI][dK][dK][dV][dA][dS][dV][dI]GG[dL]; reading uncertain; also: Cys disulfide-linked to TGN peptide; listed as Homo sapiens)
- In vivo mRNA knockdown (%) (CTNNB1; [5]): 23%

Substance: TGN-S-S-SEQ ID NO: 1740 (D): TGN-S-S-peptide, peptide GLFEAIEGFIENGWEGLAELAEALEALAAGGSC (G[dL][dF][dE][dA][dI][dE]G[dF][dI][dE][dN]G[dW][dE]G[dL][dA][dE][dL][dA][dE][dA][dL][dE][dA][dL][dA][dA]GG[dS][dC]; not fully specified; also: disulfide to TGN peptide via C-terminal Cys; listed as Homo sapiens)
- In vivo mRNA knockdown (%) (CTNNB1; Table 6, mice, sequential, peptide IV 15 min after siRNA IV, TGN-L-siRNA-II 0.25 mg/kg, peptide 1 mg/kg): 23%
- In vivo mRNA knockdown (%) (CTNNB1; [8]): 42%

Substance: TGN-S-S-SEQ ID NO: 1652 (D) ([dC](TGN)[dE][dL][dF][dE][dE][dL][dA][dE][dL][dL][dW][dE]G[dL][dE][dN][dL][dI][dD][dW]G[dN][dS]; reading uncertain; also: Cys disulfide-linked to TGN peptide; listed as Homo sapiens)
- In vivo mRNA knockdown (%) (CTNNB1; [5]): 37%

Substance: TGN-S-S-SEQ ID NO: 1740 (L): TGN-S-S-peptide, peptide GLFEAIEGFIENGWEGLAELAEALEALAAGGSC (GLFEAIEGFIENGWEGLAELAEALEALAAGGSC(TGN); reading uncertain; also: TGN attached via disulfide (S-S); listed as Homo sapiens)
- In vivo mRNA knockdown (%) (CTNNB1; [8]): 20%

Substance: TGN-CDM-SEQ ID NO: 1801 (D): TGN-CDM peptide, peptide glfgeieelieeglenlidwgng; C8 made from same all-D sequence (SEQ ID NO: 1074) (G[dL][dF]G[dE][dI][dE][dE][dL][dI][dE][dE]G[dL][dE][dN][dL][dI][dD][dW]G[dN]G; also: TGN-CDM conjugate; listed as Homo sapiens)
- In vivo mRNA knockdown (%) (CTNNB1; Table 8 (disulfide vs. ECL vs. CDM linkage), TGN-L-siRNA-II 0.25 mg/kg, targeted peptide 1 mg/kg): 23.0%
- In vivo mRNA knockdown (%) (CTNNB1; Table 8 (disulfide vs. ECL vs. CDM linkage), TGN-L-siRNA-II 0.25 mg/kg, targeted peptide 3 mg/kg): 24.9%

Substance: TGN-S-S-SEQ ID NO: 1634 (D) ([dC](TGN)G[dL][dF]G[dE][dI][dH][dE][dL][dI][dH][dH]G[dL][dE][dN][dL][dI][dD][dW][dW][dN]G; reading uncertain; also: Cys disulfide-linked to TGN peptide; listed as Homo sapiens)
- In vivo mRNA knockdown (%) (CTNNB1; [5]): 17%

Substance: TGN-S-S-SEQ ID NO: 1729 (L) (C(TGN)GPSQPTYPGDDAPVRDLIRFYRDLRRYLNVVTRHRY; reading uncertain; also: Cys disulfide-linked to TGN peptide; listed as Homo sapiens)
- In vivo mRNA knockdown (%) (CTNNB1; [5]): 10%
